Our source for the IC50 and viability values is patent US10844052B2, “LLS compounds for treatment of cancer” (THE REGENTS OF THE UNIVERSITY OF CALIFORNIA, priority 2016, dated 2020).

The test system of experiment [1] is SKOV3. Nature of the experiment: Anti-cancer activity against ovarian cancer cells SKOV3 (cell killing in solution / in vitro cell proliferation). It is filed as cell-based. Particulars: Homo sapiens, SK-OV-3, ovarian cancer cells SKOV3. The procedure:
Biotinylated LLS2 was synthesized in solution and loaded it onto a streptavidin-coated plate. The biotinylated LLS2 immobilized on the plate killed approximately 21% of SKOV3 ovarian cancer cells at 100 μM loading, 16% at 50 μM and 14% at 25 μM (FIG. 4). The killing effect of the LLS2 compound was also tested in solution. […] In addition, LLS2 can kill pancreatic cancer cell line XPA3, prostate cancer cell line PC3, colon cancer cell line HT29, breast cancer cell line MCF7 and lung cancer cell line A549 (FIG. 4).

In experiment [2] the test system is 22RV1 prostate cancer cells. Nature of the experiment: Cell viability of prostate cancer 22RV1 cells after 72 hours treatment. It is filed as cell-based. The following applies: Homo sapiens.

In general, IC50 refers to the point on the concentration scale where inhibition reaches its midpoint. Read a low IC50 as greater potency. Regarding `CCCC[C@H](N)C(=O)NC(CC(N)=O)c1ccc2c(c1)nc(-c1nccs1)n2CCN1CCCCC1` (stereo partly drawn) [LLS4, (2S)-2-amino-N-(3-amino-3-oxo-1-(1-(2-(piperidin-1-yl)ethyl)-2-(thiazol-2-yl)-1H-benzo[d]imidazol-5-yl)propyl)hexanamide], the IC50 in experiment [1] is > 50 µM.

Regarding `NC(=O)CC(NCc1ccc(Cl)c(Cl)c1)c1ccc2c(c1)nc(-c1ccc(N(CCO)CCO)cc1)n2Cc1ccc(C(F)(F)F)c(F)c1` (centres unmarked) [LLS27, 3-(2-(4-(bis(2-hydroxyethyl)amino)phenyl)-1-(3-fluoro-4-(trifluoromethyl)benzyl)-1H-benzo[d]imidazol-5-yl)-3-((3,4-dichlorobenzyl)amino)propanamide], the IC50 in experiment [1] is > 50 µM.

As for `CC(=O)OCCN(CCOC(C)=O)c1ccc(-c2nc3cc(C(N)CC(N)=O)ccc3n2Cc2ccc(C(F)(F)F)c(F)c2)cc1` (centres unmarked) [LLS22, ((4-(5-(1,3-diamino-3-oxopropyl)-1-(3-fluoro-4-(trifluoromethyl)benzyl)-1H-benzo[d]imidazol-2-yl)phenyl)azanediyl)bis(ethane-2,1-diyl) Diacetate], the IC50 in experiment [1] is > 50 µM.

Regarding `COc1ccc(C[C@@H](N)C(=O)NC(CC(N)=O)c2ccc3c(c2)nc(-c2cccc(Cn4ccnc4)c2)n3CCc2ccccn2)cc1` (stereo partly drawn) [LLS1, (2R)—N-(1-(2-(3-((1H-imidazol-1-yl)methyl)phenyl)-1-(2-(pyridin-2-yl)ethyl)-1H-benzo[d]imidazol-5-yl)-3-amino-3-oxopropyl)-2-amino-3-(4-methoxyphenyl)propanamide], inhibition in experiment [1] was half-maximal at 29.5 µM (IC50).

On to `NC(=O)CC(NCc1ccc(Cl)c(Cl)c1)c1ccc2c(c1)nc(-c1ccc(N(CCO)CCO)cc1)n2Cc1ccc(F)c(Cl)c1` (centres unmarked) [LLS31, 3-(2-(4-(bis(2-hydroxyethyl)amino)phenyl)-1-(3-chloro-4-fluorobenzyl)-1H-benzo[d]imidazol-5-yl)-3-((3,4-dichlorobenzyl)amino)propanamide], for which, in experiment [1], the IC50 was determined as 16.4 µM.

Turning to `CC(=O)OCCN(CCOC(C)=O)c1ccc(-c2nc3cc(C(CC(N)=O)NC(=O)[C@@H](N)Cc4ccc(F)c(F)c4)ccc3n2Cc2ccc(F)c(F)c2)cc1` (stereo partly drawn) [LLS11, ((4-(5-(3-amino-1-((S)-2-amino-3-(3,4-difluorophenyl)propanamido)-3-oxopropyl)-1-(3,4-difluorobenzyl)-1H-benzo[d]imidazol-2-yl)phenyl)azanediyl)bis(ethane-2,1-diyl) Diacetate], the IC50 in experiment [1] was > 50 µM.

In turn, `NC(=O)CC(NCc1ccc(Cl)c(Cl)c1)c1ccc2c(c1)nc(-c1ccc(N(CCO)CCO)cc1)n2CC12CC3CC(CC(C3)C1)C2` (centres unmarked) [LLS28, 3-(1-(((1s,3s)-adamantan-1-yl)methyl)-2-(4-(bis(2-hydroxyethyl)amino)phenyl)-1H-benzo[d]imidazol-5-yl)-3-((3,4-dichlorobenzyl)amino)propanamide] registered an IC50 in experiment [1] of 16.1 µM.

With `CC(=O)OCCN(CCO)c1ccc(-c2nc3cc(C(CC(N)=O)NCc4ccc(Cl)c(Cl)c4)ccc3n2Cc2ccc(F)c(Cl)c2)cc1` (centres unmarked) [LLS34, 2-((4-(5-(3-amino-1-((3,4-dichlorobenzyl)amino)-3-oxopropyl)-1-(3-chloro-4-fluorobenzyl)-1H-benzo[d]imidazol-2-yl)phenyl)(2-hydroxyethyl)amino)ethyl Acetate], the IC50 in experiment [1] worked out at 8.9 µM.

`CC(=O)OCCN(CCOC(C)=O)c1ccc(-c2nc3cc(C(CC(N)=O)N(Cc4ccc(Cl)c(Cl)c4)Cc4ccc(Cl)c(Cl)c4)ccc3n2CC23CC4CC(CC(C4)C2)C3)cc1` (centres unmarked) [LLS25, ((4-(1-(((1s,3s)-adamantan-1-yl)methyl)-5-(3-amino-1-(bis(3,4-dichlorobenzyl)amino)-3-oxopropyl)-1H-benzo[d]imidazol-2-yl)phenyl)azanediyl)bis(ethane-2,1-diyl) Diacetate] yielded an IC50 in experiment [1] of 20.7 µM.

Regarding `NC(=O)CC(NCc1ccc(Cl)c(Cl)c1)c1ccc2c(c1)nc(-c1ccc(N(CCO)CCO)cc1)n2Cc1ccc(F)c(F)c1` (centres unmarked) [LLS19, 3-(2-(4-(bis(2-hydroxyethyl)amino)phenyl)-1-(3,4-difluorobenzyl)-1H-benzo[d]imidazol-5-yl)-3-((3,4-dichlorobenzyl)amino)propanamide], inhibition in experiment [1] was half-maximal at 16.8 µM (IC50).

For the compound `NC(=O)CC(NC(=O)[C@@H](N)Cc1ccc(Cl)c(Cl)c1)c1ccc2c(c1)nc(-c1ccc(N(CCO)CCO)cc1)n2Cc1cc(F)ccc1F` (stereo partly drawn) [LLS13, (2S)-2-amino-N-(3-amino-1-(2-(4-(bis(2-hydroxyethyl)amino)phenyl)-1-(2,5-difluorobenzyl)-1H-benzo[d]imidazol-5-yl)-3-oxopropyl)-3-(3,4-dichlorophenyl)propanamide], the IC50 in experiment [1] is > 50 µM.

For the compound `NC(=O)CC(NCc1ccc(N(CCO)CCO)cc1)c1ccc2c(c1)nc(-c1ccc(N(CCO)CCO)cc1)n2Cc1ccc(Cl)c(Cl)c1` (centres unmarked) [LLS38, 3-((4-(bis(2-hydroxyethyl)amino)benzyl)amino)-3-(2-(4-(bis(2-hydroxyethyl)amino)phenyl)-1-(3,4-dichlorobenzyl)-1H-benzo[d]imidazol-5-yl)propanamide], the IC50 in experiment [1] was > 50 µM.

Consider `CC(=O)OCCN(CCOC(C)=O)c1ccc(-c2nc3cc(C(CC(N)=O)NC(=O)Nc4ccc(C(F)(F)F)c(Cl)c4)ccc3n2Cc2ccc(F)c(F)c2)cc1` (centres unmarked) [LLS15, ((4-(5-(3-amino-1-(3-(3-chloro-4-(trifluoromethyl)phenyl)ureido)-3-oxopropyl)-1-(3,4-difluorobenzyl)-1H-benzo[d]imidazol-2-yl)phenyl)azanediyl)bis(ethane-2,1-diyl) Diacetate], for which the IC50 in experiment [1] was > 50 µM.

With `CC(=O)OCCN(CCOC(C)=O)c1ccc(CNC(CC(N)=O)c2ccc3c(c2)nc(-c2ccc(N(CCOC(C)=O)CCOC(C)=O)cc2)n3Cc2ccc(Cl)c(Cl)c2)cc1` (centres unmarked) [LLS37, ((4-(5-(3-amino-1-((4-(bis(2-acetoxyethyl)amino)benzyl)amino)-3-oxopropyl)-1-(3,4-dichlorobenzyl)-1H-benzo[d]imidazol-2-yl)phenyl)azanediyl)bis(ethane-2,1-diyl) Diacetate], the IC50 in experiment [1] is > 50 µM.

For orientation: viability means a per cent measure of how many cells are alive, often set against a control. Lower therefore signals more harm to the cells. In experiment [2], `NC(=O)CC(NCC1CCCCC1)c1ccc2c(c1)nc(-c1ccc(N3CCOCC3)cc1)n2CCc1ccccn1` (centres unmarked) [LLS109, 3-((cyclohexylmethyl)amino)-3-(2-(4-morpholinophenyl)-1-(2-(pyridin-2-yl)ethyl)-1H-benzo[d]imidazol-5-yl)propanamide] displayed a viability at 2.5 µM of 98%, a viability at 5 µM of 88% and a viability at 10 µM of 88%.

As to `NC(=O)CC(NCC1CCCCC1)c1ccc2c(c1)nc(-c1cccc(OCCN3CCOCC3)c1)n2Cc1ccc(OC(F)(F)F)cc1` (centres unmarked) [LLS91, 3-((cyclohexylmethyl)amino)-3-(2-(3-(2-morpholinoethoxy)phenyl)-1-(4-(trifluoromethoxy)benzyl)-1H-benzo[d]imidazol-5-yl)propanamide], in experiment [2], the viability at 2.5 µM came to 33%, the viability at 5 µM was determined as 7% and the viability at 10 µM came to 0%.

In experiment [2], `CN1CCN(c2ccc(-c3nc4cc(C(CC(N)=O)NCC5CCCCC5)ccc4n3Cc3ccc(OC(F)(F)F)cc3)cc2)CC1` (centres unmarked) [LLS90, 3-((cyclohexylmethyl)amino)-3-(2-(4-(4-methylpiperazin-1-yl)phenyl)-1-(4-(trifluoromethoxy)benzyl)-1H-benzo[d]imidazol-5-yl)propanamide] came in with a viability at 2.5 µM of 1%, a viability at 5 µM of 0% and a viability at 10 µM of 0%.

For `CN(C)CCCOc1ccc(-c2nc3cc(C(CC(N)=O)NCC4CCCCC4)ccc3n2Cc2ccc(Br)cc2)cc1` (centres unmarked) [LLS95, 3-(1-(4-bromobenzyl)-2-(4-(3-(dimethylamino)propoxy)phenyl)-1H-benzo[d]imidazol-5-yl)-3-((cyclohexylmethyl)amino)propanamide], in experiment [2], the viability at 2.5 µM was 22%, the viability at 5 µM is 1% and the viability at 10 µM was determined as 0%.

Regarding `NC(=O)CC(NCC1CCCCC1)c1ccc2c(c1)nc(-c1ccc(N3CCOCC3)cc1)n2Cc1ccc(Br)cc1` (centres unmarked) [LLS94, 3-(1-(4-bromobenzyl)-2-(4-morpholinophenyl)-1H-benzo[d]imidazol-5-yl)-3-((cyclohexylmethyl)amino)propanamide], in experiment [2], the viability at 2.5 µM came out at 3%, the viability at 5 µM came out at 0% and the viability at 10 µM stood at 0%.

For `NC(=O)CC(NCc1ccc(Cl)c(Cl)c1)c1ccc2c(c1)nc(-c1ccc(N(CCO)CCO)cc1)n2Cc1ccc(Cl)c(C(F)(F)F)c1` (centres unmarked) [LLS97, 3-(2-(4-(bis(2-hydroxyethyl)amino)phenyl)-1-(4-chloro-3-(trifluoromethyl)benzyl)-1H-benzo[d]imidazol-5-yl)-3-((3,4-dichlorobenzyl)amino)propanamide], in experiment [2], the viability at 2.5 µM amounted to 23%, the viability at 5 µM amounted to 0% and the viability at 10 µM amounted to 0%.

Take `NC(=O)CC(NCC1CCCCC1)c1ccc2c(c1)nc(-c1ccncc1)n2Cc1ccc(OC(F)(F)F)cc1` (centres unmarked) [LLS88, 3-((cyclohexylmethyl)amino)-3-(2-(pyridin-4-yl)-1-(4-(trifluoromethoxy)benzyl)-1H-benzo[d]imidazol-5-yl)propanamide]: in experiment [2], the viability at 2.5 µM was found to be 75%, the viability at 5 µM was found to be 4% and the viability at 10 µM stood at 0%.

In experiment [2], `CN1CCN(c2ccc(-c3nc4cc(C(CC(N)=O)NCC5CCCCC5)ccc4n3Cc3ccc(Cl)c(C(F)(F)F)c3)cc2)CC1` (centres unmarked) [LLS99, 3-(1-(4-chloro-3-(trifluoromethyl)benzyl)-2-(4-(4-methylpiperazin-1-yl)phenyl)-1H-benzo[d]imidazol-5-yl)-3-((cyclohexylmethyl)amino)propanamide] had a viability at 2.5 µM of 1%, a viability at 5 µM of 0% and a viability at 10 µM of 0%.
